These results are taken from patent US20060063759A1, “Tricyclic steroid hormone nuclear receptor modulators” (priority 2002, published 2006).

The Ki is the equilibrium dissociation constant of an inhibitor or competing ligand from its target.

Experiment [1] concerns the target T1, human MR (Homo sapiens, UniProt P08235).
T1 construct: The full length human MR gene is cloned from a human kidney or human brain cDNA library; His tag from the pAcHLT vector (own knowledge); made in house; host or cells: Sf9 insect cells (baculovirus, pAcHLT transfer vector)
T1 sequence (P08235 1-984): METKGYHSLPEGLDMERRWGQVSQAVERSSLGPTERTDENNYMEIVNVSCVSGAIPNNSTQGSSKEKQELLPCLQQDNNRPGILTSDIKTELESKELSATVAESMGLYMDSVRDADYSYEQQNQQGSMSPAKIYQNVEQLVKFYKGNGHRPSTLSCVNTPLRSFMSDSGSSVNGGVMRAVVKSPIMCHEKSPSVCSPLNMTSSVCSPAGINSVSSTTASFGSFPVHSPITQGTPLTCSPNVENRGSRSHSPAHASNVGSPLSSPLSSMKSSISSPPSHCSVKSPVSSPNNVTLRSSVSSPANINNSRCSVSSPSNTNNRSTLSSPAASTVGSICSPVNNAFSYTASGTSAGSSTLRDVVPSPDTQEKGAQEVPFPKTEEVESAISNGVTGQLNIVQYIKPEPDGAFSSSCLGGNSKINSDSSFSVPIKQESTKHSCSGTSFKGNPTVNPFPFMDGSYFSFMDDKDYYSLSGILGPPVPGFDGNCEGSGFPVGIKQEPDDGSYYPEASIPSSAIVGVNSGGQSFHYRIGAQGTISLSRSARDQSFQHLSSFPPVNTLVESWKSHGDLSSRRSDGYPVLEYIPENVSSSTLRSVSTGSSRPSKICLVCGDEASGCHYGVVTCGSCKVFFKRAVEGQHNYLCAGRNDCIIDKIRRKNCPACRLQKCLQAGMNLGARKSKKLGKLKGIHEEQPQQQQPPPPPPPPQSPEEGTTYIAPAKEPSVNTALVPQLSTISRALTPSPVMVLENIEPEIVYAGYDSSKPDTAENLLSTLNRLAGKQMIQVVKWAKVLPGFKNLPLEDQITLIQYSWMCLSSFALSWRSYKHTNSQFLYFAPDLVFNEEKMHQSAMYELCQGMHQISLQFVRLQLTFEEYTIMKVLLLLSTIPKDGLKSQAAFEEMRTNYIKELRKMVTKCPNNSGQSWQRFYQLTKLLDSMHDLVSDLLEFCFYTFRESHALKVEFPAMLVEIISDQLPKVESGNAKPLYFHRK
The experiment is described as follows: Mineralocorticoid Receptor Binding Assay ([3H]-aldosterone). The conditions noted are these: [3H]-aldosterone binding, human MR expressed in Sf9 cells; read-out: MR Ki. A digest of the protocol:
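Lysate supernatant of Sf9 cells expressing full-length human MR (20-25 μg protein) was incubated with 0.5 nM [3H]-aldosterone and test compound in molybdate/Tris/phosphate/glycerol buffer, pH 7.5, ~16 h at 4 °C. Bound ligand was filtered and counted by scintillation; IC50 is the concentration halving [3H]-aldosterone binding.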

For experiment [2], the target named is T2, glucocorticoid receptor (Homo sapiens, UniProt P04150).
T2 construct: containing 50-200 ug of A549 cell extract and 1.86 nM [^3H]-dexamethasone; host or cells: A549 human lung epithelial cells (sonicated cell extract)
T2 sequence (P04150 1-777): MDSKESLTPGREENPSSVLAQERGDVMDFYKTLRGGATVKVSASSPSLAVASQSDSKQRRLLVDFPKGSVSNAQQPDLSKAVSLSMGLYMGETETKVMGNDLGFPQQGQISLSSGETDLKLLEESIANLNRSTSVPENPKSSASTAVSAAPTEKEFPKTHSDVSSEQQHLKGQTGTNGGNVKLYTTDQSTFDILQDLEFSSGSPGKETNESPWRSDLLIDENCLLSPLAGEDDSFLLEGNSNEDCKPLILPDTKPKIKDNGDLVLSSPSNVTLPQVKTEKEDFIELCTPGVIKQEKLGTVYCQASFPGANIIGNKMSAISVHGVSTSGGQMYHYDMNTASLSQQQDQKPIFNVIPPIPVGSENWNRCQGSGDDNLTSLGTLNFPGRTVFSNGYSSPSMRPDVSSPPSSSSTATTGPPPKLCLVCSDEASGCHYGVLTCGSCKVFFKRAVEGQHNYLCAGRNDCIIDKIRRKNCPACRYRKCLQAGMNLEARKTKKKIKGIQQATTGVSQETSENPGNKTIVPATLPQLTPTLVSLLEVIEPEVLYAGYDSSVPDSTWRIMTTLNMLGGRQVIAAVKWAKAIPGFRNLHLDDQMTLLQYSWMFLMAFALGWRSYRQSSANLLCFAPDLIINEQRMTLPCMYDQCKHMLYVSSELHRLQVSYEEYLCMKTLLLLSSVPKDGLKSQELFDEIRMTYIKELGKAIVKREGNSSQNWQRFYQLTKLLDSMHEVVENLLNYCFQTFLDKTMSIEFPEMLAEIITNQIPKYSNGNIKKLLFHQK
The experiment is described as follows: Glucocorticoid Receptor Binding Assay ([3H]-dexamethasone, A549 cell extract). Particulars: [3H]-dexamethasone binding, read-out: GR Ki. A digest of the protocol:
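A549 cell extract (50–200 ug) incubated with 1.86 nM [3H]-dexamethasone and test compound for 16 h at 4 °C in Tris-HCl pH 7.2 buffer with glycerol and molybdate. Unbound radioligand removed by dextran-coated charcoal, then supernatant bound counts measured by scintillation.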

As to `CS(=O)(=O)Nc1cccc(C=C2c3ccccc3CCc3cc(O)c(O)cc32)c1` (mixture of isomers) [Example 171, N-[3-(2,3-Dihydroxy-10,11-dihydro-dibenzo[a,d]cyclohepten-5-ylidenemethyl)-phenyl]-methanesulfonamide], the Ki in experiment [1] and in experiment [2] was < 500 nM in each case.

With `Fc1ccc2c(c1)CCc1ncccc1/C2=C\c1cccc(C(F)F)c1` [Example 542], the inhibition constant Ki was < 500 nM in experiment [1] and < 10000 nM in experiment [2].

On to `CS(=O)(=O)Nc1cc(F)cc(/C=C2\c3ccc(F)cc3CCc3nc(CF)ccc32)c1` [Example 597], for which the Ki in experiment [1] and in experiment [2] was < 500 nM each time.

Take `CS(=O)(=O)Nc1cccc(/C=C2\c3ccccc3CCc3cc(NS(C)(=O)=O)ccc32)c1` [Example 339]: the Ki in experiment [1] and in experiment [2] was < 500 nM each time.

On to `Nc1ccccc1/C=C1\c2ccc(F)cc2CCc2ncccc21` [Example 530], for which the inhibition constant Ki in experiment [1] and in experiment [2] was < 500 nM in each case.

`CS(=O)(=O)Nc1cccc(/C=C2/c3ccc(F)cc3CCc3nc(Cl)sc32)c1` [Example 551]: the inhibition constant (Ki) in experiment [1] and in experiment [2] was < 500 nM each time.

`COc1ccc2c(c1)CCc1cc(C)ccc1/C2=C(/C)c1cccc(NS(C)(=O)=O)c1` [Example 828]: the Ki in experiment [1] and in experiment [2] was < 500 nM each time.

Consider `Oc1cc(C=C2c3ccccc3CCc3c(Cl)cccc32)ccc1Cl` [173(a), 2-Chloro-5-(1-chloro-10,11-dihydro-dibenzo[a,d]cyclohepten-5-ylidenemethyl)-phenol], for which the Ki in experiment [1] and in experiment [2] was < 500 nM throughout.

On to `CCCS(=O)(=O)Nc1cccc(C=C2c3ccccc3CCc3ccccc32)c1` [Example 104, Propane-1-sulfonic acid [3-(10,11-dihydro-dibenzo[a,d]cyclohepten-5-ylidenemethyl)-phenyl]-amide], for which the Ki in experiment [1] and in experiment [2] was < 500 nM throughout.

Consider `C/C(=C1\c2ccccc2CCc2cc(Cl)ccc21)c1cccc(NS(C)(=O)=O)c1` [Example 793], for which the Ki in experiment [1] and in experiment [2] was < 500 nM in each case.

As for `O=c1[nH]c2cc(C=C3c4ccccc4CCc4cc(Cl)ccc43)ccc2o1` [Example 222(a), 5-(2-Chloro-10,11-dihydro-dibenzo[a,d]cyclohepten-5-ylidenemethyl)-3H-benzooxazol-2-one], the Ki in experiment [1] and in experiment [2] was < 500 nM in each case.

With `Nc1n[nH]c2cc(C=C3c4ccccc4CCc4ccccc43)ccc12` [Example 444], the Ki in experiment [1] and in experiment [2] was < 500 nM each time.

`CCC(=C1c2ccccc2CCc2ccccc21)c1cccc(NS(C)(=O)=O)c1` [Example 763]: the inhibition constant (Ki) in experiment [1] and in experiment [2] was < 500 nM each time.

In the case of `Oc1cccc(/C=C2\c3ccccc3CCc3cc(C(F)F)ccc32)c1` [Example 335], the inhibition constant Ki in experiment [1] and in experiment [2] was < 500 nM throughout.

Consider `Oc1cccc(/C=C2/c3ccccc3CCc3c2cccc3C(F)F)c1` [Example 380], for which the Ki is < 500 nM in experiment [1] and < 1000 nM in experiment [2].

For the compound `Cn1cnc(S(=O)(=O)Nc2cccc(C=C3c4ccccc4CCc4cc(Cl)ccc43)c2)c1` [Example 296], the inhibitory constant (Ki) in experiment [1] is < 500 nM; in experiment [2], < 10000 nM.

Turning to `CN(C)c1cccc2c1CCc1ccccc1C2=Cc1cccc(NS(C)(=O)=O)c1` [Example 404], the Ki in experiment [1] and in experiment [2] was < 500 nM throughout.

Regarding `CS(=O)(=O)Nc1cccc(C=C2c3ccccc3CCc3c2ccc(Cl)c3Cl)c1` [197(a), N-[3-(1,2-Dichloro-10,11-dihydro-dibenzo[a,d]cyclohepten-5-ylidenemethyl)-phenyl]-methanesulfonamide], the inhibition constant Ki in experiment [1] and in experiment [2] was < 500 nM in each case.

For the compound `COc1ccc2c(c1OC)CSc1ccccc1/C2=C/c1cccc(NS(=O)(=O)c2ccccc2)c1` [Example 738], the inhibition constant (Ki) in experiment [1] and in experiment [2] was < 500 nM throughout.

`CS(=O)(=O)Nc1cccc(/C=C2\c3ccccc3CCc3ncccc32)c1` [Example 506]: the inhibition constant (Ki) in experiment [1] and in experiment [2] was < 500 nM in each case.

For `Cc1cccc(CC2c3ccccc3CCc3ccccc32)c1` [Example 133, 5-(3-Methyl-benzyl)-10,11-dihydro-5H-dibenzo[a,d]cycloheptene], the results for the Ki in experiment [1] and in experiment [2] were < 500 nM and < 1000 nM, respectively.

With `Oc1cccc(/C=C2\c3ccccc3CCc3c(Br)cccc32)c1` [Example 372], the results for the Ki in experiment [1] and in experiment [2] were < 500 nM and < 1000 nM, respectively.

In the case of `CC/C(=C1/c2ccccc2CCc2cc(C)ccc21)c1cccc(NS(C)(=O)=O)c1` [Example 780], the Ki in experiment [1] and in experiment [2] was < 500 nM throughout.

For the compound `Oc1cccc(C=C2c3ccccc3CCc3ccc(F)cc32)c1` (mixture of isomers) [Example 215, 3-(3-Fluoro-10,11-dihydro-dibenzo[a,d]cyclohepten-5-ylidenemethyl)-phenol], the Ki in experiment [1] and in experiment [2] was < 500 nM throughout.

For `CS(=O)(=O)Nc1cc(F)cc(/C=C2\c3ccc(Cl)cc3COc3ccccc32)c1` [Example 623], the Ki in experiment [1] and in experiment [2] was < 500 nM throughout.

In the case of `CS(=O)(=O)Nc1cccc(/C=C2/c3ccccc3COc3cc(F)ccc32)c1` [Example 629], the inhibition constant Ki in experiment [1] and in experiment [2] was < 500 nM each time.

As for `COC(=O)c1ccc(/C=C2\c3ccc(F)cc3CCc3ncccc32)cc1` [Example 584], the results for the inhibition constant (Ki) in experiment [1] and in experiment [2] were < 1000 nM and < 10000 nM, respectively.

In the case of `Oc1cccc(C=C2c3ccccc3CCc3ccccc32)c1` [Example 57, 3-(10,11-Dihydro-dibenzo[a,d]cyclohepten-5-ylidenemethyl)-phenol], the inhibition constant (Ki) in experiment [1] and in experiment [2] was < 500 nM throughout.

Take `COc1cc2c(cc1OC)C(=Cc1cccc(NS(C)(=O)=O)c1)c1ccccc1CC2` [Example 170(b), N-[3-(2,3-Dimethoxy-10,11-dihydro-dibenzo[a,d]cyclohepten-5-ylidenemethyl)-phenyl]-methanesulfonamide]: the Ki in experiment [1] and in experiment [2] was < 500 nM each time.

On to `CS(=O)(=O)Nc1cccc(/C=C2\c3ccccc3CSc3ccccc32)c1` [Example 262, N-[3-(11H-10-Thia-dibenzo[a,d]cyclohepten-5-ylidenemethyl)-phenyl]-methanesulfonamide], for which the inhibition constant Ki in experiment [1] and in experiment [2] was < 500 nM throughout.

Regarding `C/C(=C1\c2ccccc2CCc2c(F)cccc21)c1cccc(NS(C)(=O)=O)c1` [Example 787], the Ki in experiment [1] and in experiment [2] was < 500 nM each time.

`O=c1[nH]c2cc(/C=C3/c4ccc(F)cc4OCc4ncsc43)ccc2n1CCN1CCOCC1` [Example 718]: the inhibitory constant (Ki) in experiment [1] was < 500 nM; in experiment [2], < 10000 nM.
